These results are taken from ChEMBL document CHEMBL2046426, “Neo-clerodane diterpenes from Salvia herbacea” (J Nat Prod, 2012).

Activity calls are given as the source filed them. The calls are words filed in the database; no cut-off is given here.

Experiment [1] concerns Mus musculus. The experiment is described as follows: Antiinflammatory activity in CD-1 mouse assessed as inhibition of TPA-induced ear edema at 0.1 to 1.0 uM applied topically 10 mins before compound challenge measured after 4 hrs. Format: functional, organism-based.
The subject of the next experiment is SK-LU-1. The experiment is described as follows: Cytotoxicity against human SKLU1 cells after 48 hrs by SRB assay. Format: functional, cell-based. The following applies: SK-LU-1, 48 h. On the technique in general: In SRB staining, fixed cells bind dye roughly in proportion to their protein.
The subject of a further experiment is U-251. The experiment is described as follows: Cytotoxicity against human U251 cells after 48 hrs by SRB assay. Format: functional, cell-based. The following applies: U-251, 48 h.
Experiment [2] deals with Mus musculus. The experiment is described as follows: Antiinflammatory activity in CD-1 mouse assessed as inhibition of TPA-induced ear edema applied topically 10 mins before compound challenge measured after 4 hrs. As to conditions: CD-1, Ear. It counts as functional, organism-based.

For the compound `COc1ccc2c(c1)c(CC(=O)O)c(C)n2C(=O)c1ccc(Cl)cc1`, in the experiment with Mus musculus [1], the inhibition result is “Active”.
For `C[C@]12C[C@H](c3ccoc3)OC(=O)[C@@H]1[C@H](O)C[C@@]13COC(=O)C1=CC[C@H]1O[C@]132` [TEHUANINE F], the IC50 with SK-LU-1 worked out at 38.9 µM; in the experiment with U-251 it was 41.9 µM.
Regarding `C[C@]12C[C@H](c3ccoc3)OC(=O)[C@@]1(O)CC[C@@]13COC(=O)C1=CC[C@H]1O[C@]132` [TEHUANINE G], the IC50 with Mus musculus [2] was found to be 0.24 µmol/ear.
